Results taken from publication PMC9463526 (Journal of Pharmaceutical Analysis, 2022).

Assays:
[1] = Analyte stability in human plasma; type: physicochemical; settings: for Freeze-thaw stability, Accuracy / Freeze-thaw stability, Mean concentration / Freeze-thaw stability, Difference: 3 cycles; for Freeze-thaw stability, Difference / Benchtop stability, Difference / Processed sample stability, Difference / Autosampler stability (5 °C), Difference / Long-term stability (−20 °C), Difference: vs freshly processed QC; for Benchtop stability, Accuracy / Benchtop stability, Mean concentration / Benchtop stability, Difference: 19 h; for Processed sample stability, Accuracy / Processed sample stability, Mean concentration / Processed sample stability, Difference: 23 h; for Autosampler stability (5 °C), Accuracy / Autosampler stability (5 °C), Mean concentration / Autosampler stability (5 °C), Difference: 112 h; for Long-term stability (−20 °C), Accuracy / Long-term stability (−20 °C), Mean concentration / Long-term stability (−20 °C), Difference: 27 days
Experimental: The stability of the analytes was studied under various storage and processing conditions. […] Short- and long-term stability studies of all analytes were conducted in human blank plasma and brain homogenate under several storage conditions. Analyte stability in biological matrices was analyzed using freshly prepared calibration standards and QC samples. The percentage difference between the stability and freshly processed QC was also assessed. Re-injection reproducibility was evaluated within the sample stability period in the autosampler. Analytes were considered stable if the accuracy at each level was ±15.0% of the nominal value. Additionally, the difference from corresponding comparison QC samples must be within ±15.0%.

[2] = Pilot pharmacokinetic studies in mice (blood-brain barrier); type: in vivo
[3] = parameters: method as in investigational brochures; settings: ref investigational brochures; cited from earlier work
[4] = Tumor-to-plasma partition coefficients (Kp, Kp,uu) in GBM patients; type: in vivo, human; settings: for Unbound tumor-to-plasma partition coefficient (Kp,uu), fold lower than abemaciclib: both GBM regions, five patients
Experimental: Blank brain and clinical brain tumor tissue homogenates were prepared at 1:9 (m/V) ratio with PBS. The samples were homogenized at a speed of 6.00 m/s for 40 s for three cycles using a Bead Ruptor Elite homogenizer (Omni International, Kennesaw, GA, USA). Plasma was used as a surrogate matrix when preparing calibration curves for brain and brain tumor homogenates and CSF as well as for the PBS fraction after sample dialysis. To minimize matrix differences, all plasma samples were spiked with PBS, while all non-plasma samples were spiked with plasma. Extraction of the analyte and IS was facilitated by protein precipitation using methanol-containing IS precipitation solution. Samples (70 μL) spiked with PBS or plasma were precipitated using 400 μL of IS precipitation solution. After centrifugation at 12,000 r/min for 10 min at 4 °C, the supernatant was transferred for LC-MS/MS analysis.
Unbound drug levels in the actual plasma and brain tumor tissue were measured using dialysis for 16 h to reach equilibrium. The mean of fraction unbound values determined in five patient samples was calculated.
The validated bioanalytical method was employed to investigate analytes pharmacokinetics in the plasma, brain tumor, and CSF in GBM patients (ClinicalTrials.gov identifier: NCT04391595). The protocol was reviewed and approved by the Institutional Review Board of the Barrow Neurological Institute, St. Joseph's Hospital and Medical Center (Phoenix, AZ, USA). All patients enrolled in the trial provided written informed consent. […] Blood, CSF, and GBM tissue (including gadolinium-contrast enhancing and non-enhancing regions) samples were obtained intra-operatively from each patient on the […] on the planned operation day. Blood was centrifuged at 4 °C and 3,000 r/min for 10 min; plasma was subsequently collected. Brain tumors were resected 7–9 h after the last dose was administered. Once resected, the tissue samples were rinsed with PBS, paper dried, and freshly frozen in liquid nitrogen. […]

| Freeze-thaw stability, Accuracy ([1]; HQC 400.0 nM) | Freeze-thaw stability, Mean concentration ([1]; HQC 400.0 nM) | Freeze-thaw stability, Difference ([1]; HQC 400.0 nM) | Freeze-thaw stability, Accuracy ([1]; LQC 0.6 nM) | Freeze-thaw stability, Mean concentration ([1]; LQC 0.6 nM) | Freeze-thaw stability, Difference ([1]; LQC 0.6 nM) | Benchtop stability, Accuracy ([1]; HQC 400.0 nM) | Benchtop stability, Mean concentration ([1]; HQC 400.0 nM) | Benchtop stability, Difference ([1]; HQC 400.0 nM) | Benchtop stability, Accuracy ([1]; LQC 0.6 nM) | Benchtop stability, Mean concentration ([1]; LQC 0.6 nM) | Benchtop stability, Difference ([1]; LQC 0.6 nM) | Processed sample stability, Accuracy ([1]; HQC 400.0 nM) | Processed sample stability, Mean concentration ([1]; HQC 400.0 nM) | Processed sample stability, Difference ([1]; HQC 400.0 nM) | Processed sample stability, Accuracy ([1]; LQC 0.6 nM) | Processed sample stability, Mean concentration ([1]; LQC 0.6 nM) | Processed sample stability, Difference ([1]; LQC 0.6 nM) | Autosampler stability (5 °C), Accuracy ([1]; HQC 400.0 nM) | Autosampler stability (5 °C), Mean concentration ([1]; HQC 400.0 nM) | Compound | further results |
| --- | --- | --- | --- | --- | --- | --- | --- | --- | --- | --- | --- | --- | --- | --- | --- | --- | --- | --- | --- | --- | --- |
| 100.6% | 402.5 nM | 3.2% | 101.0% | 0.606 nM | 5.3% | 102.3% | 409.3 nM | 2.8% | 97.7% | 0.586 nM | 3.2% | 97.7% | 390.7 nM | 2.2% | 91.1% | 0.547 nM | −3.4% | 95.4% | 381.8 nM | Cn1nccc1Nc1nccc(-c2cc3c(s2)C(C)(C)N(CCN2CCOCC2)C3=O)n1 [LY3214996] | Autosampler stability (5 °C), Difference ([1]; HQC 400.0 nM): 1.5%; Autosampler stability (5 °C), Accuracy ([1]; LQC 0.6 nM): 92.5%; Autosampler stability (5 °C), Mean concentration ([1]; LQC 0.6 nM): 0.555 nM; Autosampler stability (5 °C), Difference ([1]; LQC 0.6 nM): 3.1%; Long-term stability (−20 °C), Accuracy ([1]; HQC 400.0 nM): 104.5%; Long-term stability (−20 °C), Mean concentration ([1]; HQC 400.0 nM): 418.1 nM; Long-term stability (−20 °C), Difference ([1]; HQC 400.0 nM): 3.4%; Long-term stability (−20 °C), Accuracy ([1]; LQC 0.6 nM): 101.5%; Long-term stability (−20 °C), Mean concentration ([1]; LQC 0.6 nM): 0.609 nM; Long-term stability (−20 °C), Difference ([1]; LQC 0.6 nM): −2.2%; Crossing of the blood-brain barrier [2]: may cross the blood-brain barrier; pKa (strongest basic) [3]: 6.21 |
| 106% | 424.2 nM | 5.8% | 105.3% | 0.632 nM | 5.8% | 103.8% | 415.0 nM | 1.1% | 92.2% | 0.553 nM | −1.7% | 100.6% | 402.2 nM | 0.7% | 95.5% | 0.573 nM | 3.6% | 97.7% | 390.9 nM | Cc1nc2c(F)cc(-c3nc(Nc4ccc(CN5CCNCC5)cn4)ncc3F)cc2n1C(C)C [M2] | Unbound tumor-to-plasma partition coefficient (Kp,uu), fold lower than abemaciclib [4]: at least 3 fold; Total tumor-to-plasma partition coefficient (Kp), fold higher than M20 ([4]; gadolinium-contrast enhancing and non-enhancing GBM regions): > 2 fold; Autosampler stability (5 °C), Difference ([1]; HQC 400.0 nM): −0.2%; Autosampler stability (5 °C), Accuracy ([1]; LQC 0.6 nM): 96.8%; Autosampler stability (5 °C), Mean concentration ([1]; LQC 0.6 nM): 0.581 nM; Autosampler stability (5 °C), Difference ([1]; LQC 0.6 nM): 4.8%; Long-term stability (−20 °C), Accuracy ([1]; HQC 400.0 nM): 109.2%; Long-term stability (−20 °C), Mean concentration ([1]; HQC 400.0 nM): 437.0 nM; Long-term stability (−20 °C), Difference ([1]; HQC 400.0 nM): 5.6%; Long-term stability (−20 °C), Accuracy ([1]; LQC 0.6 nM): 99.9%; Long-term stability (−20 °C), Mean concentration ([1]; LQC 0.6 nM): 0.6 nM; Long-term stability (−20 °C), Difference ([1]; LQC 0.6 nM): −3.1% |
| 99.6% | 398.6 nM | 0.3% | 97.2% | 0.583 nM | 2.9% | 102.2% | 408.9 nM | 2.8% | 99.9% | 0.599 nM | 3.5% | 101.4% | 405.7 nM | 2.7% | 88.9% | 0.534 nM | −2% | 95.6% | 382.5 nM | CCN1CCN(Cc2ccc(Nc3ncc(F)c(-c4cc(F)c5nc(CO)n(C(C)C)c5c4)n3)nc2)CC1 [M20] | Unbound tumor-to-plasma partition coefficient (Kp,uu), fold lower than abemaciclib [4]: at least 3 fold; Autosampler stability (5 °C), Difference ([1]; HQC 400.0 nM): −2%; Autosampler stability (5 °C), Accuracy ([1]; LQC 0.6 nM): 95.1%; Autosampler stability (5 °C), Mean concentration ([1]; LQC 0.6 nM): 0.57 nM; Autosampler stability (5 °C), Difference ([1]; LQC 0.6 nM): 1.3%; Long-term stability (−20 °C), Accuracy ([1]; HQC 400.0 nM): 104.7%; Long-term stability (−20 °C), Mean concentration ([1]; HQC 400.0 nM): 418.8 nM; Long-term stability (−20 °C), Difference ([1]; HQC 400.0 nM): 2.7%; Long-term stability (−20 °C), Accuracy ([1]; LQC 0.6 nM): 101.7%; Long-term stability (−20 °C), Mean concentration ([1]; LQC 0.6 nM): 0.61 nM; Long-term stability (−20 °C), Difference ([1]; LQC 0.6 nM): −4% |
